From ChEMBL document CHEMBL4265965, “Dichloroacetophenones targeting at pyruvate dehydrogenase kinase 1 with improved selectivity and antiproliferative activity: Synthesis and structure-activity relationships” (Bioorg Med Chem Lett, 2018)
Active and inactive are the calls of the source. No cut-off for these calls is given here.

What was measured:
[1] = target: T1, [Pyruvate dehydrogenase (acetyl-transferring)] kinase isozyme 1, mitochondrial (Homo sapiens, UniProt Q15118); assay: Inhibition of PDK1 in human NCI-H1975 cells assessed as switch of pyruvate metabolism from lactate production to oxidative phosphorylation by measuring increase in basal oxygen consumption rate at 10 uM incubated for 4 hrs measured for 16 mins; format: cell-based
[2] = target: T1, [Pyruvate dehydrogenase (acetyl-transferring)] kinase isozyme 1, mitochondrial; assay: Inhibition of PDK1 in human NCI-H1975 cells assessed as switch of pyruvate metabolism from lactate production to oxidative phosphorylation by measuring increase in basal oxygen consumption rate at 10 uM incubated for 4 hrs followed by FCCP addition for 1 hr measured for 16 mins; format: cell-based
NCI-H1975 [3] = assay: Antiproliferative activity against human NCI-H1975 cells assessed as inhibition of cell proliferation after 72 hrs by MTT assay; format: functional, cell-based; conditions: NCI-H1975, 72 h
[4] = target: T1, [Pyruvate dehydrogenase (acetyl-transferring)] kinase isozyme 1, mitochondrial; assay: Inhibition of PDK1 in human NCI-H1975 cells assessed as switch of pyruvate metabolism from lactate production to oxidative phosphorylation by measuring decrease in extracellular acidification rate at 10 uM pretreated for 4 hrs followed by oligomycin addition for 1 hr measured for 16 mins; format: cell-based
NCI-H1975 [5] = assay: Antiproliferative activity against human NCI-H1975 cells assessed as inhibition of cell proliferation at 12 uM after 72 hrs by MTT assay relative to control; format: functional; conditions: NCI-H1975, 72 h
[6] = target: RAC-alpha serine/threonine-protein kinase (Homo sapiens, UniProt P31749); assay: Inhibition of AKT phosphorylation in human NCI-H1975 cells at 10 uM after 24 hrs by Western blot analysis; format: cell-based; conditions: nci-h1975, 24 h
NCI-H1650 [7] = assay: Antiproliferative activity against human NCI-H1650 cells assessed as inhibition of cell proliferation at 12 uM after 72 hrs by MTT assay relative to control; format: functional; conditions: NCI-H1650, 72 h
[8] = target: T1, [Pyruvate dehydrogenase (acetyl-transferring)] kinase isozyme 1, mitochondrial; assay: Inhibition of PDK1 in human NCI-H1975 cells assessed as switch of pyruvate metabolism from lactate production to oxidative phosphorylation by measuring increase in basal oxygen consumption rate at 10 uM incubated for 4 hrs followed by antimycinA addition for 1 hr measured for 16 mins; format: cell-based
[9] = target: T1, [Pyruvate dehydrogenase (acetyl-transferring)] kinase isozyme 1, mitochondrial; assay: Inhibition of PDK1 in human NCI-H1975 cells assessed as switch of pyruvate metabolism from lactate production to oxidative phosphorylation by measuring decrease in extracellular acidification rate at 10 uM pretreated for 4 hrs followed by glucose addition for 1 hr measured for 16 mins; format: cell-based
[10] = target: T1, [Pyruvate dehydrogenase (acetyl-transferring)] kinase isozyme 1, mitochondrial; assay: Inhibition of PDK1 in human NCI-H1975 cells assessed as switch of pyruvate metabolism from lactate production to oxidative phosphorylation by measuring increase in basal oxygen consumption rate at 10 uM incubated for 4 hrs followed by oligomycin addition for 1 hr measured for 16 mins; format: cell-based
A549 [11] = assay: Antiproliferative activity against human A549 cells assessed as inhibition of cell proliferation at 6 uM after 72 hrs by MTT assay relative to control; format: functional; conditions: A549, 72 h
NCI-H1975 [12] = assay: Antiproliferative activity against human NCI-H1975 cells assessed as inhibition of cell proliferation at 2 uM after 72 hrs by MTT assay relative to control; format: functional; conditions: NCI-H1975, 72 h
A549 [13] = assay: Antiproliferative activity against human A549 cells assessed as inhibition of cell proliferation at 12 uM after 72 hrs by MTT assay relative to control; format: functional; conditions: A549, 72 h
A549 [14] = assay: Antiproliferative activity against human A549 cells assessed as inhibition of cell proliferation at 2 uM after 72 hrs by MTT assay relative to control; format: functional; conditions: A549, 72 h
NCI-H1650 [15] = assay: Antiproliferative activity against human NCI-H1650 cells assessed as inhibition of cell proliferation at 2 uM after 72 hrs by MTT assay relative to control; format: functional; conditions: NCI-H1650, 72 h
[16] = target: T1, [Pyruvate dehydrogenase (acetyl-transferring)] kinase isozyme 1, mitochondrial; assay: Binding affinity to recombinant human N-terminal His6/Sumo-tagged PDK1 (29 to 436 residues) expressed in Escherichia coli BL21
NCI-H1650 [17] = assay: Antiproliferative activity against human NCI-H1650 cells assessed as inhibition of cell proliferation at 6 uM after 72 hrs by MTT assay relative to control; format: functional; conditions: NCI-H1650, 72 h
NCI-H1975 [18] = assay: Antiproliferative activity against human NCI-H1975 cells assessed as inhibition of cell proliferation at 6 uM after 72 hrs by MTT assay relative to control; format: functional; conditions: NCI-H1975, 72 h
[19] = target: T1, [Pyruvate dehydrogenase (acetyl-transferring)] kinase isozyme 1, mitochondrial; assay: Inhibition of recombinant human N-terminal His6/Sumo-tagged PDK1 (29 to 436 residues) expressed in Escherichia coli BL21 at 1 uM by kinase-glo luminescence assay relative to control
[20] = target: Epidermal growth factor receptor (Homo sapiens, UniProt P00533); assay: Inhibition of EGFR phosphorylation in human NCI-H1975 cells at 10 uM after 24 hrs by Western blot analysis; format: cell-based; conditions: nci-h1975, 24 h
[21] = Inhibition of ERK phosphorylation in human NCI-H1975 cells at 10 uM after 24 hrs by Western blot analysis; format: cell-based; conditions: nci-h1975, 24 h
[22] = target: T1, [Pyruvate dehydrogenase (acetyl-transferring)] kinase isozyme 1, mitochondrial; assay: Inhibition of PDK1 in human NCI-H1975 cells assessed as switch of pyruvate metabolism from lactate production to oxidative phosphorylation by measuring decrease in extracellular acidification rate at 10 uM pretreated for 4 hrs followed by 2DG addition for 1 hr measured for 16 mins; format: cell-based
[23] = target: T1, [Pyruvate dehydrogenase (acetyl-transferring)] kinase isozyme 1, mitochondrial; assay: Inhibition of PDK1 in human NCI-H1975 cells assessed as switch of pyruvate metabolism from lactate production to oxidative phosphorylation by measuring increase in basal oxygen consumption rate at 2.5 to 5 uM incubated for 4 hrs measured for 16 mins; format: cell-based
[24] = target: T1, [Pyruvate dehydrogenase (acetyl-transferring)] kinase isozyme 1, mitochondrial; assay: Inhibition of PDK1 in human NCI-H1975 cells assessed as switch of pyruvate metabolism from lactate production to oxidative phosphorylation by measuring increase in proton leak at 5 uM incubated for 4 hrs followed by oligomycin addition for 1 hr measured for 16 mins; format: cell-based
Sus scrofa [25] = species on record: Sus scrofa; assay: Inhibition of porcine PDK1 assessed as activation of pyruvate dehydrogenase complex at 1 uM measured after 3 mins
[26] = target: T1, [Pyruvate dehydrogenase (acetyl-transferring)] kinase isozyme 1, mitochondrial; assay: Inhibition of PDK1 in human NCI-H1975 cells assessed as switch of pyruvate metabolism from lactate production to oxidative phosphorylation by measuring increase in maximum respiration at 5 uM incubated for 4 hrs followed by FCCP addition for 1 hr measured for 16 mins; format: cell-based
[27] = target: T1, [Pyruvate dehydrogenase (acetyl-transferring)] kinase isozyme 1, mitochondrial; assay: Inhibition of PDK1 in human NCI-H1975 cells assessed as switch of pyruvate metabolism from lactate production to oxidative phosphorylation by measuring increase in ATP production at 5 uM incubated for 4 hrs followed by oligomycin addition for 1 hr measured for 16 mins; format: cell-based
[28] = target: T1, [Pyruvate dehydrogenase (acetyl-transferring)] kinase isozyme 1, mitochondrial; assay: Inhibition of PDK1 in human NCI-H1975 cells assessed as reduction in pyruvate dehydrogenase phosphorylation at 10 uM after 24 hrs by Western blot analysis; format: cell-based
[29] = target: T1, [Pyruvate dehydrogenase (acetyl-transferring)] kinase isozyme 1, mitochondrial; assay: Inhibition of PDK1 in human NCI-H1975 cells assessed as switch of pyruvate metabolism from lactate production to oxidative phosphorylation by measuring decrease in extracellular acidification rate at 20 uM pretreated for 4 hrs followed by glucose addition for 1 hr measured for 16 mins; format: cell-based
Sus scrofa [30] = species on record: Sus scrofa; assay: Inhibition of porcine PDK1 assessed as activation of pyruvate dehydrogenase complex at 80 uM measured after 3 mins relative to control
[31] = target: T1, [Pyruvate dehydrogenase (acetyl-transferring)] kinase isozyme 1, mitochondrial; assay: Inhibition of PDK1 in human NCI-H1975 cells assessed as switch of pyruvate metabolism from lactate production to oxidative phosphorylation by measuring decrease in extracellular acidification rate at 20 uM pretreated for 4 hrs followed by oligomycin addition for 1 hr measured for 16 mins; format: cell-based
[32] = target: T1, [Pyruvate dehydrogenase (acetyl-transferring)] kinase isozyme 1, mitochondrial; assay: Inhibition of PDK1 in human NCI-H1975 cells assessed as switch of pyruvate metabolism from lactate production to oxidative phosphorylation by measuring increase in basal oxygen consumption rate at 20 uM incubated for 4 hrs followed by antimycinA addition for 1 hr measured for 16 mins; format: cell-based
[33] = target: T1, [Pyruvate dehydrogenase (acetyl-transferring)] kinase isozyme 1, mitochondrial; assay: Inhibition of PDK1 in human NCI-H1975 cells assessed as switch of pyruvate metabolism from lactate production to oxidative phosphorylation by measuring decrease in extracellular acidification rate at 20 uM pretreated for 4 hrs followed by 2DG addition for 1 hr measured for 16 mins; format: cell-based
[34] = target: T1, [Pyruvate dehydrogenase (acetyl-transferring)] kinase isozyme 1, mitochondrial; assay: Inhibition of PDK1 in human NCI-H1975 cells assessed as switch of pyruvate metabolism from lactate production to oxidative phosphorylation by measuring increase in basal oxygen consumption rate at 20 uM incubated for 4 hrs followed by oligomycin addition for 1 hr measured for 16 mins; format: cell-based
[35] = target: T1, [Pyruvate dehydrogenase (acetyl-transferring)] kinase isozyme 1, mitochondrial; assay: Inhibition of PDK1 in human NCI-H1975 cells assessed as switch of pyruvate metabolism from lactate production to oxidative phosphorylation by measuring increase in basal oxygen consumption rate at 20 uM incubated for 4 hrs measured for 16 mins; format: cell-based
[36] = target: T1, [Pyruvate dehydrogenase (acetyl-transferring)] kinase isozyme 1, mitochondrial; assay: Inhibition of PDK1 in human NCI-H1975 cells assessed as switch of pyruvate metabolism from lactate production to oxidative phosphorylation by measuring increase in basal oxygen consumption rate at 20 uM incubated for 4 hrs followed by FCCP addition for 1 hr measured for 16 mins; format: cell-based

Chain of Epidermal growth factor receptor (P00533 whole entry): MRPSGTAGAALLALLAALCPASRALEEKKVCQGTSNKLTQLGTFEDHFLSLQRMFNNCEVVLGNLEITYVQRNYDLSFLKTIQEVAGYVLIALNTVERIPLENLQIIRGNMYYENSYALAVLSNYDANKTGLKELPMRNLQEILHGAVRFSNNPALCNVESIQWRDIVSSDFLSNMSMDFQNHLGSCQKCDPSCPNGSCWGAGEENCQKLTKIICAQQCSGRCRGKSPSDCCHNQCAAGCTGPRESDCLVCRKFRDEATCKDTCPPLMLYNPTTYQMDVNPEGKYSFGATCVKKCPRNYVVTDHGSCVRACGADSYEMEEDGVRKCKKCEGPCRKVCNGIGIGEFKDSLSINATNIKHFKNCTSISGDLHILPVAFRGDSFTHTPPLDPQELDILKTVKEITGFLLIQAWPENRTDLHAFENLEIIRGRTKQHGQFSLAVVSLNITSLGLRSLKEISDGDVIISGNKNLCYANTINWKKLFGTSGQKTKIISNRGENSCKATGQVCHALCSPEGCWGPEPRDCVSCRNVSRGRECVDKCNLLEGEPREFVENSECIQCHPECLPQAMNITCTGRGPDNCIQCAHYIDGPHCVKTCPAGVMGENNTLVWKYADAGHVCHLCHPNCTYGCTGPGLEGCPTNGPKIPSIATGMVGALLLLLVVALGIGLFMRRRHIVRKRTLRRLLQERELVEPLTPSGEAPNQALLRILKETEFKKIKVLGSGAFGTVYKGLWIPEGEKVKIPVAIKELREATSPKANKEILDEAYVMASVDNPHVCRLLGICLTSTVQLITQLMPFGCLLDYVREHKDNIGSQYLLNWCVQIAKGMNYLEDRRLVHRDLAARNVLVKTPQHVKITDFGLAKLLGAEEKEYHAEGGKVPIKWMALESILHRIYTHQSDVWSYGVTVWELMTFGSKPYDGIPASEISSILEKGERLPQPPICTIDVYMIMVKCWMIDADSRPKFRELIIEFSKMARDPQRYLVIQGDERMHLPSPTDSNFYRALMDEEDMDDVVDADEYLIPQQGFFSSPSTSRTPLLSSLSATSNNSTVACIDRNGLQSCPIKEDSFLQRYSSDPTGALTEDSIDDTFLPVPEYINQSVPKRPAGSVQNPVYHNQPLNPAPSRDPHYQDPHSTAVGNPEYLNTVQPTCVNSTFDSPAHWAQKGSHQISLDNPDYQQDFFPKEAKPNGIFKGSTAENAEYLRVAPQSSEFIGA
Chain of RAC-alpha serine/threonine-protein kinase (P31749 whole entry): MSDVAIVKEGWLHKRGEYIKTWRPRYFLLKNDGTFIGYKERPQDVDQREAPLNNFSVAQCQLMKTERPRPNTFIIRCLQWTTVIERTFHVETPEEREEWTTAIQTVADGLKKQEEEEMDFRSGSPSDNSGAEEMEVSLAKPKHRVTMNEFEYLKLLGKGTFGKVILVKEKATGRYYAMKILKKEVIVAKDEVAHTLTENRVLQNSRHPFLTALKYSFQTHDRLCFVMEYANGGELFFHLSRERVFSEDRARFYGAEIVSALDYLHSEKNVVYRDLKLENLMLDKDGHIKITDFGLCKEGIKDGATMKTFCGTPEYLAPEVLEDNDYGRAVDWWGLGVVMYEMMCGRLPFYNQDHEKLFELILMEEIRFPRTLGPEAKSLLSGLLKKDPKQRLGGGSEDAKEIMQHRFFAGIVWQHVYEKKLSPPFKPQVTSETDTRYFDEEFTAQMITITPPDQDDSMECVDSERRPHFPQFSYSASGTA
T1 sequence (Q15118 whole entry): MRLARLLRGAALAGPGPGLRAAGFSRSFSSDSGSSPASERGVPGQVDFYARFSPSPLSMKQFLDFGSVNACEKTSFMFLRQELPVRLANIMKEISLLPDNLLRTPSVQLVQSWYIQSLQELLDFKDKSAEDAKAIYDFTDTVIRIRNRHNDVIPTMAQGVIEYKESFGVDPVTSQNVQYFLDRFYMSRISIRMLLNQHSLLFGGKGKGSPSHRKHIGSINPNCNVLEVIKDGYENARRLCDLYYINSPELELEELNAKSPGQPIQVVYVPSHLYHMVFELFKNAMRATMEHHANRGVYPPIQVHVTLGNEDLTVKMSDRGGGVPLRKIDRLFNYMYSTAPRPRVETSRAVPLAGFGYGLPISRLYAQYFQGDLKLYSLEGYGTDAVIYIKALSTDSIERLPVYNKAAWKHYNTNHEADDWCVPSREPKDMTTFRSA

SMILES	inhibition [1]	inhibition [2]	IC50 (NCI-H1975 [3]) [nM]	inhibition [4]	inhibition at 12 µM (NCI-H1975 [5]) [%]	inhibition (INH) [6]	inhibition at 12 µM (NCI-H1650 [7]) [%]	inhibition [8]	inhibition [9]	inhibition [10]	inhibition at 6 µM (A549 [11]) [%]	inhibition at 2 µM (NCI-H1975 [12]) [%]	inhibition at 12 µM (A549 [13]) [%]	inhibition at 2 µM (A549 [14]) [%]	inhibition at 2 µM (NCI-H1650 [15]) [%]	inhibition at 6 µM (NCI-H1650 [17]) [%]	inhibition at 6 µM (NCI-H1975 [18]) [%]	inhibition [19]	inhibition (INH) [20]	inhibition (INH) [21]	other results
CCc1ccc(C(=O)C(Cl)Cl)cc1[N+](=O)[O-]	Active	Active	1750	Active	98.9	Not Active	100	inactive	Active	Active	71.4	57	93.7	20.2	35.6	79.3	93.2	66.6%	Not Active	Not Active	Kd [16]: 1290 nM; inhibition [22]: Active
CC(C)Oc1ccc(C(=O)C(Cl)Cl)cc1[N+](=O)[O-]	Active	Active	1260	Active	99.5	Not Active	99.5	inactive	Active	Active	92.5	65.5	99.7	27.7	48.6	95.9	99.1	84.3%	Not Active	Not Active	inhibition [23]: Active; inhibition [24]: Active; inhibition (Sus scrofa [25]): Active; inhibition [26]: Active; inhibition [27]: Active; Kd [16]: 580 nM; inhibition [22]: Active
O=C(c1ccccc1)C(Cl)Cl	–	–	7900	–	83.7	Active	47.9	–	–	–	28.5	13.2	54.4	9.2	15.3	31.3	54.3	inactive	Active	Active	inhibition [28]: Active; inhibition [29]: inactive; inhibition (Sus scrofa [30]): 36.6%; inhibition [31]: inactive; inhibition [32]: inactive; inhibition (Sus scrofa [25]): inactive; inhibition [33]: Active; inhibition [34]: Active; inhibition [35]: Active; inhibition [36]: Active
